Strand notation (5' to 3'): a small letter for the sugar, then the base; units joined by * are phosphorothioate-linked, units joined directly phosphodiester-linked; [ ] holds rarer units or linkages, { } end groups; capitals alone tell only the bases. l = locked nucleic acid (LNA); [5mC] = 5-methylcytosine; d = 2'-deoxy (DNA)
Tested on: ApoB mRNA
Assay: Knock down of ApoB mRNA in vivo (qPCR on liver and kidney RNA)
Conditions: C57BL6/J mice, single sc dose 0.25 mg/kg GalNAc2 or equimolar amounts; for down regulation of ApoB mRNA in kidney: sacrificed at day 10, kidney, qPCR (FIG. 7B); for ApoB mRNA knock down in the liver: sacrificed at day 10, liver, qPCR (FIG. 7A)
Experimental: To compare the effect of different GalNAc constructs C57BL6/J mice were injected sc with a single dose saline or 0.25 mg/kg GalNAc2 cluster conjugated LNA-antisense oligonucleotide (GalNAc2) or equimolar amounts of LNA antisense oligonucleotides conjugated to the GalNAc constructs of the invention (FIGS. 6 E, I, M and N) or unconjugated LNA antisense oligonucleotide (see Example 2, table 1 for details) and sacrificed at days 10 where liver and kidney were isolated.
At sacrifice RNA was isolated from liver and kidney and subjected to qPCR with ApoB specific primers and probe to analyze for ApoB mRNA knockdown as described in the protocol below.
The animals were anaesthetised with 70% CO2-30% O2 and sacrificed by cervical dislocation. One half of the large liver lobe and one kidney were minced and submerged in RNAlater.
Total RNA was extracted from a maximum of 30 mg of tissue/sample, homogenized by bead-milling in the presence of lysis buffer (MagnaPure LC RNA Isolation Tissue buffer (#03604721001; Roche)) according to the manufacturer's instructions. The RNA was purified on a MagnaPure 96 System; Roche using Cellular RNA Large Volume Kit (#05467535001; Roche) using the manufacturer's standard protocol. First strand synthesis was performed using Reverse Transcriptase reagents from Ambion according to the manufacturer's instructions.
For each sample 0.5 μg total RNA was adjusted to (10.8 μl) with RNase free H2O and mixed with 2 μl random decamers (50 μM) and 4 μl dNTP mix (2.5 mM each dNTP) and heated to 70° C. for 3 min after which the samples were rapidly cooled on ice. 2 μl 10× Buffer RT, 1 μl MMLV Reverse Transcriptase (100 U/μl) and 0.25 μl RNase inhibitor (10 U/μl) were added to each sample, followed by incubation at 42° C. for 60 min, heat inactivation of the enzyme at 95° C. for 10 min and then the sample was cooled to 4° C. cDNA samples were diluted 1:5 and subjected to RT-QPCR using Taqman Fast Universal PCR Master Mix 2× (Applied Biosystems Cat #4364103) and Taqman gene expression assay (mApoB, Mn01545150_ml and mGAPDH #4352339E) following the manufacturers protocol and processed in an Applied Biosystems RT-qPCR instrument (7500/7900 or ViiA7) in fast mode.

Row | Substance | down regulation of ApoB mRNA in kidney | ApoB mRNA knock down in the liver
1 | Control: unconjugated oligonucleotide of SEQ ID NO: 1 (5′G^mCattggtatT^mCA-3′), without any GalNAc moieties attached (DNA GCATTGGTATTCA; LNA modifications, chemistry not fully specified) [reference compound] | higher | –
2 | E: trivalent GalNAc construct, chain length 10, conjugated to oligonucleotide SEQ ID NO: 2 (5′ caG^mCattggtatT^mCA-3′) (antisense CAGCATTGGTATTCA; sugars from the 5' end d2 l2 d8 l3, [5mC] at 4, 14, backbone not given here; trivalent GalNAc conjugate, first linkages phosphodiester) | higher for the unconjugated LNA oligonucleotide (control) than for the GalNAc conjugated compounds | comparable effect on the target mRNA (ApoB mRNA) to the GalNAc2 cluster
3 | GalNAc2: SEQ ID NO: 1 attached to the GalNAc2 cluster by a phospothioate group; SEQ ID NO: 20 in WO 2014/076196 (antisense lG*l[5mC]*dA*dT*dT*dG*dG*dT*dA*dT*lT*l[5mC]*lA; GalNAc2 cluster attached via phosphorothioate, end not given here) [reference compound] | higher for the unconjugated LNA oligonucleotide (control) than for the GalNAc conjugated compounds | –
4 | I: trivalent GalNAc construct, chain length 16, conjugated to oligonucleotide SEQ ID NO: 2 (antisense CAGCATTGGTATTCA; sugars from the 5' end d2 l2 d8 l3, [5mC] at 4, 14, backbone not given here; trivalent GalNAc conjugate, first linkages phosphodiester) | higher for the unconjugated LNA oligonucleotide (control) than for the GalNAc conjugated compounds | comparable effect on the target mRNA (ApoB mRNA) to the GalNAc2 cluster
5 | M: trivalent GalNAc construct with spacer, chain length 16, conjugated to oligonucleotide SEQ ID NO: 2 (antisense CAGCATTGGTATTCA; sugars from the 5' end d2 l2 d8 l3, [5mC] at 4, 14, backbone not given here; further chemistry not fully specified) | higher for the unconjugated LNA oligonucleotide (control) than for the GalNAc conjugated compounds | comparable effect on the target mRNA (ApoB mRNA) to the GalNAc2 cluster
6 | N: trivalent GalNAc construct with spacer, chain length 30, conjugated to oligonucleotide SEQ ID NO: 2 (antisense CAGCATTGGTATTCA; sugars from the 5' end d2 l2 d8 l3, [5mC] at 4, 14, backbone not given here; further chemistry not fully specified) | higher for the unconjugated LNA oligonucleotide (control) than for the GalNAc conjugated compounds | comparable effect on the target mRNA (ApoB mRNA) to the GalNAc2 cluster

Reference: US11505569B2, “GalNAc phosphoramidites, nucleic acid conjugates thereof and their use” (Hoffmann-La Roche, Inc., priority 2014, dated 2022)
